Here are results for one molecule from patent US20230123104A1, “CRYSTAL OF TRICYCLIC COMPOUND ACTING ON CRBN PROTEIN AND PREPARATION METHOD THEREFOR” (CHIA TAI TIANQING PHARMACEUTICAL GROUP CO., LTD., priority 2020, published 2023).

Data set [1] is described as follows: Pharmacokinetic evaluation in rats. It is filed as in vivo, SD male rats. The text has this:
The test animals in the study were SD male rats, and the LC/MS/MS method was used to quantitatively determine the drug concentration in the plasma of the rats at different time points after intravenous injection or oral administration of the compound of formula (I), thus evaluating the pharmacokinetic characteristics of the compound of formula (I) in the rats.
Sprague Dawley (SD) rats (male, 200-300 g, 7-10 weeks old, Beijing Vital River or Shanghai SLAC).
(§1) Clear solution of the compound of formula (I) was injected into SD rats (fasted overnight) via the tail vein or administered intragastrically to SD rats (fasted overnight). For intravenous injection, 200 μL of blood was each collected by jugular vein puncture at 0 h (before injection) and 0.0833 h, 0.25 h, 0.5 h, 1 h, 2 h, 4 h, 6 h, 8 h and 24 h (after injection), and then placed in an anticoagulation tube added with EDTA-K2 (Jiangsu KANGJIAN Medical Apparatus Co., Ltd.), and the mixture was thoroughly vortex-mixed at 4° C. and centrifuged at 13000 rpm for 10 min; for intragastric administration, blood was collected by jugular vein puncture at 0 h (before administration) and 0.5 h, 1 h, 2 h, 4 h, 6 h, 8 h and 24 h (after administration), and then placed in an anticoagulation tube added with EDTA-K2 (Jiangsu KANGJIAN Medical Apparatus Co., Ltd), and the mixture was thoroughly vortex-mixed and centrifuged at 13000 rpm for 10 min. The plasma concentration was measured by LC-MS/MS, and the relevant pharmacokinetic parameters were calculated using WinNonlin™ Version 6.3 (Pharsight, Mountain View, Calif.), a pharmacokinetic software, with a non-compartmental model linear-log trapezoidal method.

Data set [2] deals with multiple myeloma cell line NCI-H929. The data set can be described thus: Antiproliferative effect, CellTiter-Glo cell viability assay, NCI-H929. Format: cell-based. As to the method:
(§2) In this experiment, the inhibition of cell proliferation in multiple myeloma cell lines MM.1S and NCI-H929 by the compound of formula (I) was detected.
(§3) The tumor cell lines were cultured in an incubator at 37° C. with 5% CO2 under the culture conditions described above. Periodical passaging was performed, and cells growing at log phase were used for plating.
(§4) (1) Cells were stained with trypan blue and viable cells were counted.
(§5) (2) The cell concentration was adjusted to an appropriate level.
(§6) (3) 90 μL of cell suspension was added to each well in the culture plate and cell-free medium was added to the blank control wells according to the table above.
(§7) (4) The culture plate was incubated overnight in an incubator at 37° C. with 5% CO2 and 100% relative humidity. […]
(§8) The following procedure was performed according to the instructions of Promega CellTiter-Glo luminescence cell viability assay kit (Promega-G7573). […]
(§9) (8) The culture plate was placed at room temperature for 10 min to stabilize the luminescence signals.
(§10) (9) The luminescence signals were detected on 2104 EnVision plate reader.
(§11) Inhibition rates of the compound of formula (I) at different concentrations were calculated in Excel, followed by plotting the inhibition curves and calculating relevant parameters including minimum inhibition rate, maximum inhibition rate and IC50 using GraphPad Prism software.

Data set [3] has as its system multiple myeloma cell line MM.1S. The data set can be described thus: Antiproliferative effect, CellTiter-Glo cell viability assay, MM.1S. Format: cell-based, human. The procedure:
as §2, §3, §4, §5, §6, §7, §8, §9, §10, §11
On the technique in general: In ATP-based viability assays light output follows the ATP content of the culture.

The nature of data set [4]: Pharmacokinetic evaluation in mice. Format: in vivo, C57BL male mice.
Description: The test animals in the study were C57BL male mice, and the LC/MS/MS method was used to quantitatively determine the drug concentration in the plasma of the mice at different time points after intravenous injection or oral administration of the test compound, thus evaluating the pharmacokinetic characteristics of the compound of formula (I) in the mice.
C57Balb/C (C57) mice (male, 20-30 g, 7-10 weeks old, Beijing Vital River or Shanghai SLAC).
as §1, with “Clear or suspended” for “Clear”, “C57 mice” for “SD rats”, “Ltd.),” for “Ltd),”

The test system of data set [5] is human myeloma MM.1S cells. The data set can be described thus: In vivo pharmacodynamic study in subcutaneous xenograft tumor CB-17 SCID model. Also noted: species or system CB-17 SCID mice. Conditions: 5 mg/kg oral, twice daily. As to the method:
Cell culturing: human multiple myeloma cells MM.1S (ATCC® CRL-2974™) were cultured in vitro, in a semi-suspension manner, with an ATCC-formulated RPMI-1640 medium containing 10% fetal calf serum, 100 U/mL penicillin and 100 μg/mL streptomycin in an incubator at 37° C. with 5% CO2. Passages were performed twice a week. At a required number, the cells were taken, counted and inoculated.
Animals: CB-17 SCID mice, female, 6-8 weeks old, weighing 18-20 g.
0.2 mL (5×10^6 cells) of MM.1S cells (along with matrigel in a volume ratio of 1:1) was subcutaneously inoculated on the right back of each mouse, and the mice were divided into groups for administration after the mean tumor volume was approximately 130 mm^3. Seven days constitute an administration cycle, twice daily with a 12 h interval, and the compound of formula (I) was orally administered for a total of four cycles. The compound of formula (I) was administered at a dose of 5 mg/kg, tumor volume was measured twice weekly with a two-dimensional caliper, and the volume was measured in cubic millimeters and calculated according to the following formula: V=0.5a×b^2, where a and b are the long and short diameters, respectively, of the tumor. Anti-tumor efficacy was determined by dividing the mean tumor increase volume of animals treated with the compound of formula (I) by the mean tumor increase volume of untreated animals.

Setting [6] is: intragastric administration (10 mg/kg).
The mark [7] stands for this setting: intravenous injection (2 mg/kg).

pIC50: −log10 of the molar value.

Consider `O=C1CCC(c2noc3ccc4[nH]ccc4c23)C(=O)N1` (centres unmarked) [Compound of formula (I)], for which the “Area under plasma concentration-time curve (0-inf)” value stood at 26.34 µM·h in data set [1] (setting [6]), 7.92 µM·h in data set [1] (setting [7]), 5.34 µM·h in data set [4] (setting [7]) and 12.29 µM·h in data set [4] (oral administration (10 mg/kg)). The “Bioavailability F” value in data set [1] (setting [6]) came to 66.5%; in data set [4] (oral administration (10 mg/kg)), 46.1%. Also, the Peak concentration was 12.75 µM in data set [1] (setting [6]) and 10.52 µM in data set [4] (oral administration (10 mg/kg)). In addition, the Time to peak in data set [1] (setting [6]) is recorded as 0.50 h; in data set [4] (oral administration (10 mg/kg)), 0.25 h. Also, the pIC50 (commonly the IC50 on a negative log10 scale, so that one unit is a factor of ten) is 9.30 in data set [2] (Homo sapiens, 120 h, NCI-H929, co-incubated 5 days, CellTiter-Glo) and 9.40 in data set [3] (Homo sapiens, MM1.S, 120 h, co-incubated 5 days, CellTiter-Glo). The “inhibitory effect on cell proliferation (conclusion)” value in data set [2] (NCI-H929) and in data set [3] was “excellent inhibitory effect” throughout. Further, the “Tumor volume (Day 0)” value in data set [5] (Day 0) was found to be 131 ± 12 mm^3. Besides, in data set [5] (Day 24), the “TGI (Day 24)” value is on record as 105%. In addition, the “Tumor volume (Day 24)” value in data set [5] (Day 24) was 14 ± 5 mm^3.
